Data set [1] can be described thus: Determination of plasma and brain compound concentrations. The class given is in vivo. The settings on record: mouse, 1 hour after a 5 mg/kg intraperitoneal injection. The procedure:
For utility in neurodegenerative diseases, MT-stabilizing compounds must cross the blood-brain barrier (BBB) and enter the brain. As summarized in Table 7, a number of examples show concentrations in the brain that exceed 0.5 μM an hour after administration of a 5 mg/kg dose, with brain-to-plasma concentration ratios of ˜0.3 or higher.
Mouse brains were homogenized in 10 mM ammonium acetate, pH 5.7 (1:2; w/v) using a handheld sonic homogenizer. Mouse plasma was obtained from blood that was collected into a 1.5 ml tube containing 0.5M EDTA solution and which was centrifuged for 10 minutes at 4500 g at 4° C. Aliquots (50 μl) of brain homogenates (50% w/v in 100 mM NH4OAC pH 5.75) or plasma were mixed with 0.2 ml of acetonitrile, centrifuged at 15,000 g, and the resulting supernatant was used for subsequent LC-MS/MS analysis. The LC-MS/MS system was comprised of an Aquity UPLC and a TQ MS that was controlled using MassLynx software (Waters Corporation, Milford, Mass., USA). Compounds were detected using multiple reaction monitoring (MRM) of their specific collision-induced ion transitions. Samples were separated on an Aquity BEH C18 column (1.7 μm, 2.1×50 mm) at 35° C. Operation was in positive electrospray ionization mode, with mobile phase A of 0.1% (v/v) formic acid, and B of acetonitrile with 0.1% (v/v) formic acid. Injections of 5 μl were separated at a flow rate of 0.6 mL/min using a gradient from 5% to 95% B over two minutes, followed by wash and re-equilibration steps. The MS was operated with a desolvation temperature of 450° C. and a source temperature of 150° C. Desolvation and source nitrogen gas flows were 900 L/hr and 50 L/hr, respectively. Source and MS/MS voltages were optimized for each compound using the MassLynx auto tune utility. To account for possible matrix effects on analytes, standard curves were generated for each compound from brain homogenate and plasma samples that had compound added at 24, 240, 2400 and 24000 nM. The standard curve samples were extracted and analyzed in an identical fashion as the corresponding tissue-derived samples, and peak areas were plotted against concentration and a linear regression curve was used to obtain estimated concentrations of the tissue-derived samples using the peak areas. In all cases, the tissue-derived sample peak areas fell within the linear portion of standard curves that were prepared and analyzed concurrently with the samples.

The test system of data set [2] is brain α-tubulin that is acetylated (AcTub). The data set is described as follows: Determination of brain acetyl-tubulin levels. The class given is in vivo, CD1 mice. The settings on record: wild-type mice, once-daily 1 mg/kg dose, 3 days (FIG. 14).
In data set [3] the test system is acetyl-tubulin (AcTub) in HEK/QBI 293 cells. The data set is described as follows: Microtubule stabilization assay: acetyl-tubulin (AcTub) ELISA after compound treatment. In kind it is cell-based. The note with it: for AcTub elevation compared with epoD: at 100 nM (FIG. 1); for change in acetyl-tubulin (AcTub), in words: relative to vehicle-treated cells (FIG. 1, Tables 5 and 6). An excerpt: The MT-stabilizing properties of triazolopyrimidines was investigated in a cell-free MT-polymerization assay, as well in a cell-based assay (HEK/QBI 293 cells) that measures changes in acetyl-tubulin (AcTub), a biomarker of stable MTs. (Laferriere, N.; MacRae, T.; Brown, D. Tubulin synthesis and assembly in differentiating neurons. Biochemistry and Cell Biology 1997, 75, 103-117; Black, M.; Baas, P.; Humphries, S. Dynamics of alpha-tubulin deacetylation in intact neurons. J Neurosci 1989, 9, 358).
The MT-stabilizing properties of additional triazolopyrimidines, phenylpyrimidines, and pyridazines was investigated in a cell-free MT-polymerization assay, as well in the aforementioned cell-based assay (HEK/QBI 293 cells) that measures changes in acetyl-tubulin (AcTub), a biomarker of stable MTs (Laferriere, N.; MacRae, T.; Brown, D. Tubulin synthesis and assembly in differentiating neurons. Biochemistry and Cell Biology 1997, 75, 103-117; Black, M.; Baas, P.; Humphries, S. Dynamics of alpha-tubulin deacetylation in intact neurons. J Neurosci 1989, 9, 358).
The HEK293 cell subclone, QBI293, was maintained in DMEM supplemented with 10% fetal calf or bovine serum, 1% penicillin/streptomycin antibiotic solution and 1% glutamine at 37° C. in 5% CO2. Cells were plated into 6-well plates at a density of 800,000 cells/well. […] Test compounds were added at multiple concentrations to the test wells and incubated for 4 h. Subsequently, the media was removed and the cells were washed with 1 ml of ice-cold phosphate-buffered saline (PBS). After removal of PBS, 0.2 ml of ice-cold RIPA (0.5% sodium deoxycholate, 0.1% SDS, 1% NP-40, 5 mM EDTA, pH 8.0) containing protease inhibitor mix (1 μg/ml each of pepstatin, leupeptin, TLCK, TPCK and trypsin inhibitor), 1 mM PMSF and 1 μM trichostatin A was added to the wells. The wells were then scraped using a cell scraper and pipetted into 1.5 ml microfuge tubes. The tubes were sonicated with a handheld sonicator at 20× on a power setting of 2, followed by centrifugation for 30 min at 15,000 rpm at 4° C. Supernatants were removed and quantified for protein concentration and the acetyl-tubulin levels were determined using an ELISA as described.
384-well plates were coated with 12G10α-tubulin antibody (Developmental Studies Hybridoma Bank at the University of Iowa; 10 μg/ml) in 30 μl of cold 0.1 M bicarbonate buffer. After overnight incubation at 4° C., the plates were washed with cold PBS, followed by the addition of Block-Ace solution and overnight incubation at 4° C. The blocking solution was removed and 10 μl of EC buffer (0.02 M sodium phosphate, pH 7.0, 2 mM EDTA, 0.4 M NaCl, 0.2% bovine serum albumin, 0.05% CHAPS, 0.4% BlockAce and 0.05% NaN3) was added to each well. Cell culture supernatants were diluted in EC buffer to final protein concentrations of 9, 3, 1.5 and 0.5 μg/30 μl, and 30 μl of each were added to wells in duplicate and plates were subsequently sealed. After overnight incubation at 4° C., the plates were aspirated and washed with cold PBS containing 0.05% Tween-20 and 0.05% thimerisol (PBS-Tween buffer), followed by addition of 30 μl/well of HRP-conjugated acetyl-tubulin antibody (6-11B-1 antibody from Sigma-Aldrich) that was prepared with a Peroxidase Labeling Kit following the manufacturer's instructions that was subsequently diluted 1:1000 in C buffer (0.02 M sodium phosphate, pH 7.0, 2 mM EDTA, 0.4 M NaCl, 1% bovine serum albumin and 0.05% thimerisol). The plates were incubated at room temperature for 4 h on a platform rocker, followed by washing with cold PBS-Tween buffer. Peroxidase substrate solution (30 μl) was added and the reaction was quenched after 5-10 min by addition of 30 μl of 10% phosphoric acid. Plates were read on a SpectraMax M5 plate reader at 450 nm. Because an acetyl-tubulin standard is not available, all data were normalized to a control treatment condition (e.g., no compound addition).
A general note: An ELISA detects its analyte on a solid surface through an enzyme-linked reagent.

The conditions of data set [4]: mouse, in vivo; cited from earlier work.
For data set [5], the system named is AcTub-positive MTs in HEK/QBI293 cells. The data set is described as follows: Acetyl tubulin immunofluorescence. In kind it is cell-based. The note with it: 4 h incubation. The protocol:
The HEK293 cell subclone, QBI293, was plated onto poly-D-lysine-coated glass coverslips at 50,000 cells/ml in DMEM supplemented with 10% fetal calf or bovine serum, 1% penicillin/streptomycin antibiotic solution and 1% glutamine and maintained overnight at 37° C. in 5% CO2. The next day, cells were left untreated or were treated with 100 nM epothilone D, 100 nM CNDR-51533 or 1 μM colchicine. After an additional 4 h of incubation at 37° C. in 5% CO2, cells were washed twice with PBS, and then fixed for 15 min in PBS containing 4% paraformaldehyde. The cells were again washed twice with PBS, and permeabilized with 0.1% Triton X-100 in PBS for 15 min. Following the Triton X-100 treatment, the cells were washed twice in PBS, and treated with PBS containing 3% bovine serum albumin for 1 h. Acetyl-tubulin antibody was subsequently added (1:1000 dilution) and incubated for 1 h. Cells were then washed cells 3×5 min with 0.1% Triton X-100 in PBS, and secondary antibody (goat-anti-mouse labeled with Alexa fluor 488 at 1:1000) was added and allowed to incubate for 1 h. […] Finally, the cells were washed once with PBS, followed by H2O, and the cover slips were mounted onto slides with Fluoromount G. Images were acquired on a microscope equipped for fluorescence detection. […]

Data set [6] relates to detyrosinated α-tubulin (GluTub). Briefly: Detyrosinated α-tubulin (GluTub) in the cell-based studies. The settings on record: data not shown.
Where [7] appears, read: brain, ip, read-out: Brain nM (SD).
The mark [8] stands for this setting: plasma, ip, read-out: Plasma nM (SD).

“Also recorded” adds a separate entry of the source. Read-outs that look alike come from different tables or passages of the source.

Data on 9 molecules can be found in US9649317B2, “Heterocyclic compounds and their use for the treatment of neurodegenerative tauopathies” (The Trustees of The University of Pennsylvania, priority 2012, dated 2017).

In the case of `C[C@H](Nc1nc(-c2cnccn2)nc(Cl)c1-c1c(F)cc(F)cc1F)C(F)(F)F` [CNDR-51549, (S)-6-chloro-2-(pyrazin-2-yl)-5-(2,4,6-trifluorophenyl)-N-(1,1,1-trifluoropropan-2-yl)pyrimidin-4-amine], the concentration at 1 h in data set [1] (setting [7]) worked out at 2870 nM; in data set [1] (setting [8]), 4950 nM. The molecule further showed a Brain/Plasma in data set [1] of 0.58. Besides, the “AcTub levels in the brain” value in data set [2] was “increase of AcTub levels in the brains; also recorded: increase in the fraction of brain α-tubulin that is acetylated”.

As for “(S)-6-Chloro-5-(2,6-difluoro-4-(3-(methylamino)propoxy)phenyl)-2-(pyridin-2-yl)-N-(1,1,1-trifluoropropan-2-yl)pyrimidin-4-amine [CNDR-51562]”, the “dose of maximal effect (AcTub increase)” value in data set [3] (4 h treatment) is 0.1 µM. The “Fold-Increase in AcTub” value in data set [3] (4 h treatment, at the dose of maximal effect, relative to control) was 6.2 fold.

Regarding `C[C@H](Nc1nc(-c2ccccn2)nc(Cl)c1-c1c(F)cc(F)cc1F)C(F)(F)F` [CNDR-51552, (S)-6-chloro-2-(pyridin-2-yl)-5-(2,4,6-trifluorophenyl)-N-(1,1,1-trifluoropropan-2-yl)pyrimidin-4-amine], the concentration at 1 h in data set [1] (setting [7]) is 1480 nM; in data set [1] (setting [8]), 4320 nM. The Brain/Plasma in data set [1] worked out at 0.34.

For `CNCCCOc1cc(F)c(-c2c(Cl)nc3ncnn3c2N[C@@H](C)C(F)(F)F)c(F)c1` [CNDR-51533, (S)-5-Chloro-6-(2,6-difluoro-4-(3-(methylamino)propoxy)phenyl)-N-(1,1,1-trifluoropropan-2-yl)-[1,2,4]triazolo[1,5-a]pyrimidin-7-amine, reference compound], in data set [4], the “crossing of the blood-brain barrier (BBB), previously described agents” value is “do not cross the BBB”. Also, the “AcTub immunofluorescence, MT structure” value in data set [5] (100 nM, relative to control cells) was “large increase in highly organized, AcTub-positive MTs”. Further, in data set [3], the “AcTub elevation compared with epoD” value is on record as “significantly more effective than epoD” and the “change in acetyl-tubulin (AcTub), in words” value (shortened to “change in acetyl-tubulin”) was “dose-dependent elevation in AcTub”. Besides, the “change in detyrosinated α-tubulin (GluTub)” value (from here on “change … (GluTub)”) in data set [6] is reported as “significant increases of detyrosinated α-tubulin (GluTub)”.

One may read the Kp as the ratio of the level in a tissue or fluid to that in plasma or blood. `C[C@H](Nc1nc(-c2ccccn2)nc(Cl)c1-c1c(F)cc(OCCCN(C)C)cc1F)C(F)(F)F` [CNDR-51561, (S)-6-Chloro-5-(4-(3-(dimethylamino)propoxy)-2,6-difluorophenyl)-2-(pyridin-2-yl)-N-(1,1,1-trifluoropropan-2-yl)pyrimidin-4-amine]: the concentration at 1 h in data set [1] (setting [7]) was 701 nM; in data set [1] (setting [8]), 2120 nM. Also, the Kp at 1 h in data set [1] (brain/plasma, ip) turned out to be 0.33.

As to `COc1cc2c(c(OC)c1OC)-c1ccc(OC)c(=O)cc1[C@@H](NC(C)=O)CC2` [colchicine], the AcTub immunofluorescence staining result in data set [5] (1 μM, data not shown) is “significant loss of AcTub staining”.

Regarding `Fc1cc(F)c(-c2c(Cl)nc3ncnn3c2NCC(F)(F)F)c(F)c1` [CNDR-51539, 5-Chloro-N-(2,2,2-trifluoroethyl)-6-(2,4,6-trifluorophenyl)-[1,2,4]triazolo[1,5-a]pyrimidin-7-amine], the “change in acetyl-tubulin” value in data set [3] is “dose-dependent elevation in AcTub”. The “change … (GluTub)” value in data set [6] is “significant increases of detyrosinated α-tubulin (GluTub)”.

`C[C@H](Nc1c(-c2c(F)cc(OCCCN(C)C)cc2F)c(Cl)nc2ncnn12)C(F)(F)F` [CNDR-51555, (S)-5-Chloro-6-(4-(3-(dimethylamino)propoxy)-2,6-difluorophenyl)-N-(1,1,1-trifluoropropan-2-yl)-[1,2,4]triazolo[1,5-a]pyrimidin-7-amine]: the concentration at 1 h stood at 1350 nM in data set [1] (setting [7]) and 4930 nM in data set [1] (setting [8]). This molecule came in with a Brain/Plasma in data set [1] of 0.27.

Regarding `CNCCCOc1cc(F)c(-c2c(Cl)nc3ncnn3c2NCC(F)(F)F)c(F)c1` [CNDR-51534, 5-Chloro-6-(2,6-difluoro-4-(3-(methylamino)propoxy)phenyl)-N-(2,2,2-trifluoroethyl)-[1,2,4]triazolo[1,5-a]pyrimidin-7-amine], in data set [3], the “AcTub elevation compared with epoD” value is “significantly more effective than epoD” and the “change in acetyl-tubulin” value is “dose-dependent elevation in AcTub”. The “change … (GluTub)” value in data set [6] was “significant increases of detyrosinated α-tubulin (GluTub)”.
